pEC50: −log10 of the molar value.

Usually pEC50 stands for the negative decadic logarithm of the EC50, by convention in mol/L.

T1 sequence (P13569 with tags, fused parts or gaps DEL508-508): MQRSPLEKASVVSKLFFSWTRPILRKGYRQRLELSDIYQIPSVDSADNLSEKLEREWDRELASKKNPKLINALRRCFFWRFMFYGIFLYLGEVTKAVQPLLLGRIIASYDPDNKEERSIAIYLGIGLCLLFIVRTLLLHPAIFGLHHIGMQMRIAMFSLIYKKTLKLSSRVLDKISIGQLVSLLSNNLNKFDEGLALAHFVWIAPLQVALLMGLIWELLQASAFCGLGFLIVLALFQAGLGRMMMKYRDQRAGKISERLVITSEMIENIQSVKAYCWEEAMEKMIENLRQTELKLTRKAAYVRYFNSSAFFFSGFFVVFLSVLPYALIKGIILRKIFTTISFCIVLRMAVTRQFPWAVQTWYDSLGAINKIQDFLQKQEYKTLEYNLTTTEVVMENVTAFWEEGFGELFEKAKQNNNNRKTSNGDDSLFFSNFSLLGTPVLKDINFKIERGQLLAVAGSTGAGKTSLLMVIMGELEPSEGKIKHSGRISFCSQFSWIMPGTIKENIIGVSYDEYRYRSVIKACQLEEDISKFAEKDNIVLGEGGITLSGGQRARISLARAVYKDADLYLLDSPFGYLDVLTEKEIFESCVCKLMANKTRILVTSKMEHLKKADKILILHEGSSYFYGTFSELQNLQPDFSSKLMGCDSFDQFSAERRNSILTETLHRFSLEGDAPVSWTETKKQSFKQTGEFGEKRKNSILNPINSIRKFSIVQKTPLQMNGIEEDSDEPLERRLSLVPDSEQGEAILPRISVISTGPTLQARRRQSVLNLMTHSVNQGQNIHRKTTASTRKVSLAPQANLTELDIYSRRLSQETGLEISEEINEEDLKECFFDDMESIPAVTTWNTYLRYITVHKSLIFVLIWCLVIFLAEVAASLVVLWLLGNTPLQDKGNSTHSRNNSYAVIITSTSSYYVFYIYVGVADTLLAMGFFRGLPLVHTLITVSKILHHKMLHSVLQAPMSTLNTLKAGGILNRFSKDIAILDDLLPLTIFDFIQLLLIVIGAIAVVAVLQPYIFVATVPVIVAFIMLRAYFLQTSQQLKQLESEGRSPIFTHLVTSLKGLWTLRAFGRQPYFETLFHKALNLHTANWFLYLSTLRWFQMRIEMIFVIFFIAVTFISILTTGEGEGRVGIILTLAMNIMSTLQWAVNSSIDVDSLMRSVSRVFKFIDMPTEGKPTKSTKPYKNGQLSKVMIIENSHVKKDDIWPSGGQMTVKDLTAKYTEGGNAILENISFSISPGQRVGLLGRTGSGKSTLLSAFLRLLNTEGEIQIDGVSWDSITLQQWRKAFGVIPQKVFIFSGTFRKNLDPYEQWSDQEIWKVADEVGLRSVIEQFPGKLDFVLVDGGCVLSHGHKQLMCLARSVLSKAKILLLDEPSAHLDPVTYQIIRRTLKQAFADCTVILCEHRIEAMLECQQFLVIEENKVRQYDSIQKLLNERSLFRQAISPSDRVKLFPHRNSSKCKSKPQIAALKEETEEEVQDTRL

The first experiment has as its target T1, ΔF508-CFTR (Homo sapiens, UniProt P13569, DEL508-508).
T1 construct: expressed in transfected cells
Description: Membrane potential optical assay (FRET voltage-sensor dyes, VIPR), identification of potentiator compounds. The format is cell-based. Particulars: Table 3; assay not given. The procedure, abridged:
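Potentiator screen measured membrane potential via FRET between CC2-DMPE donor and DiSBAC2(3), read on VIPR II. Compound went in with the first addition of chloride-free gluconate bath; cells were ΔF508-CFTR-expressing NIH3T3 mouse fibroblasts, temperature-corrected at 27 °C for 24 h.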
`CC(=O)N1CCCC(C)(C)c2ccc(NC(=O)c3c[nH]c4ccccc4c3=O)cc21` [Compound 109, N-(1-acetyl-2,3,4,5-tetrahydro-5,5-dimethyl-1H-benzo[b]azepin-8-yl)-1,4-dihydro-4-oxoquinoline-3-carboxamide]: the pEC50 was 4.60 to 5.00. `CS(=O)(=O)Nc1cccc(NC(=O)c2c[nH]c3ccccc3c2=O)c1` [Compound 214, N-(3-methylsulfonylaminophenyl)-4-oxo-1H-quinoline-3-carboxamide]: the pEC50 is 4.60 to 5.00.

Still in this experiment, the particulars now being: Table 3; assay not given; read-out: % Activity (% Efficacy, relative efficacy).
Take `O=C(Nc1cccc(Cc2ccccc2)c1)c1c[nH]c2ccccc2c1=O` [Compound 389, N-(3-benzylphenyl)-4-oxo-1H-quinoline-3-carboxamide]: the Emax lay in the range of 25 to 100%.

Consider `Cc1cccc(C(C)C)c1NC(=O)c1c[nH]c2ccccc2c1=O` [Compound 430, N-(2-isopropyl-6-methyl-phenyl)-4-oxo-1H-quinoline-3-carboxamide], for which the Emax fell in the range of 25 to 100%. Regarding `COc1ccc2[nH]cc(C(=O)Nc3ccc(N4[C@H](C)CC[C@H]4C)cc3C(F)(F)F)c(=O)c2c1` [Compound 685, N-(4-((2R,5R)-2,5-dimethylpyrrolidin-1-yl)-2-(trifluoromethyl)phenyl)-6-methoxy-4-oxo-1,4-dihydroquinoline-3-carboxamide], the Emax is 25 to 100%. Turning to `O=C(Nc1ccc(C23CC4CC(CC(C4)C2)C3)cc1)c1c[nH]c2ccccc2c1=O` [Compound 455, N-[4-(1-adamantyl)phenyl]-4-oxo-1H-quinoline-3-carboxamide], the Emax lay within 25 to 100%. On to `CN1CCC(C)(C)c2ccc(NC(=O)c3c[nH]c4ccccc4c3=O)cc21` [Compound 710, 4-oxo-N-(1,4,4-trimethyl-2,3-dihydroquinolin-7-yl)-1H-quinoline-3-carboxamide], for which the Emax lay within 25 to 100%. Take `O=C(Nc1ccc(C(O)(C(F)(F)F)C(F)(F)F)cc1)c1c[nH]c2ccccc2c1=O` [Compound 150, 4-oxo-N-[4-[2,2,2-trifluoro-1-hydroxy-1-(trifluoromethyl)ethyl]phenyl]-1H-quinoline-3-carboxamide]: the Emax was in the range of 25 to 100%.

On to `O=C(Nc1ccc2[nH]nnc2c1)c1c[nH]c2ccccc2c1=O` [Compound 256, N-(1H-benzotriazol-5-yl)-4-oxo-1H-quinoline-3-carboxamide], for which the Emax is less than 25%. In the case of `CCOc1cccc(-c2ccccc2NC(=O)c2c[nH]c3ccccc3c2=O)c1` [Compound 306, N-[2-(3-ethoxyphenyl)phenyl]-4-oxo-1H-quinoline-3-carboxamide], the Emax is more than 100%. As to `CC1(c2cc(F)c(NC(=O)c3cnc4ccccc4c3O)cc2O)CCCCCCC1` [Compound 403, N-[2-fluoro-5-hydroxy-4-(1-methylcyclooctyl)-phenyl]-4-hydroxy-quinoline-3-carboxamide], the Emax lay in the range of 25 to 100%.

In the case of `CC(=O)N1CCCC(C)(C)c2ccc(NC(=O)c3c[nH]c4ccccc4c3=O)cc21` [Compound 109, N-(1-acetyl-2,3,4,5-tetrahydro-5,5-dimethyl-1H-benzo[b]azepin-8-yl)-1,4-dihydro-4-oxoquinoline-3-carboxamide], the Emax fell in the range of 25 to 100%. The same measure, in the same setting: as for `CC(C)(C)c1c[nH]c2cc(NC(=O)c3c[nH]c4cccc(O)c4c3=O)ccc12` [Compound 535, 5-hydroxy-4-oxo-N-(3-tert-butyl-1H-indol-6-yl)-1H-quinoline-3-carboxamide], the figure is 25 to 100%; as for `Cc1c[nH]c2cc(NC(=O)c3c[nH]c4ccccc4c3=O)ccc12` [Compound 113, N-(3-methyl-1H-indol-6-yl)-4-oxo-1H-quinoline-3-carboxamide], 25 to 100%. Same read-out and setting: as for `CS(=O)(=O)Nc1cccc(NC(=O)c2c[nH]c3ccccc3c2=O)c1` [Compound 214, N-(3-methylsulfonylaminophenyl)-4-oxo-1H-quinoline-3-carboxamide], the figure is 25 to 100%; as for `COc1cc(NC(=O)c2c[nH]c3ccc(F)cc3c2=O)cc(C(F)(F)F)c1` [Compound 666, 6-fluoro-N-[3-methoxy-5-(trifluoromethyl)phenyl]-4-oxo-1H-quinoline-3-carboxamide], 25 to 100%; as for `CC(=O)N1CCc2ccc(NC(=O)c3c[nH]c4ccccc4c3=O)cc2C1` [Compound 303, N-(2-acetyl-1,2,3,4-tetrahydroisoquinolin-7-yl)-4-oxo-1H-quinoline-3-carboxamide], 25 to 100%. On to `CCCCc1ccc(NC(=O)c2c[nH]c3ccccc3c2=O)cc1` [Compound 324, N-(4-butylphenyl)-4-oxo-1H-quinoline-3-carboxamide], for which the Emax lay in the range of 25 to 100%. Turning to `Cc1cccc2[nH]cc(C(=O)Nc3ccc(N4CC(F)(F)C[C@H]4C)cc3C(F)(F)F)c(=O)c12` [Compound 667, (R)-N-(4-(4,4-difluoro-2-methylpyrrolidin-1-yl)-2-(trifluoromethyl)phenyl)-5-methyl-4-oxo-1,4-dihydroquinoline-3-carboxamide], the Emax is 25 to 100%. For `O=C(c1ccccc1)c1ccccc1NC(=O)c1c[nH]c2ccccc2c1=O` [Compound 252, N-(2-benzoylphenyl)-4-oxo-1H-quinoline-3-carboxamide], the Emax lay within 25 to 100%. As to `CC(C)(C)c1ccc(NC(=O)c2c[nH]c3ccc(F)cc3c2=O)cc1F` [Compound 527, 6-fluoro-N-(3-fluoro-4-tert-butyl-phenyl)-4-oxo-1H-quinoline-3-carboxamide], the Emax is 25 to 100%. As for `O=C(Nc1ccc(N2CCC[C@@H]2CO)cc1C(F)(F)F)c1c[nH]c2ccccc2c1=O` [Compound 670, (R)-N-(4-(2-(hydroxymethyl)pyrrolidin-1-yl)-2-(trifluoromethyl)phenyl)-4-oxo-1,4-dihydroquinoline-3-carboxamide], the Emax is 25 to 100%. For the compound `COc1ccc2[nH]cc(C(=O)Nc3cc4[nH]ccc4cc3C(C)(C)C)c(=O)c2c1` [Compound 533, 6-methoxy-4-oxo-N-(5-tert-butyl-1H-indol-6-yl)-1H-quinoline-3-carboxamide], the Emax was more than 100%. Regarding `O=C(Nc1ccc2c(c1)OCO2)c1c[nH]c2ccccc2c1=O` [Compound 437, N-benzo[1,3]dioxol-5-yl-4-oxo-1H-quinoline-3-carboxamide], the Emax is less than 25%. As for `CC(C)(C)c1cc2ccc(NC(=O)c3c[nH]c4ccccc4c3=O)cc2[nH]1` [Compound 320, 4-oxo-N-(2-tert-butyl-1H-indol-6-yl)-1H-quinoline-3-carboxamide], the Emax is 25 to 100%. Consider `CCn1cc(C(=O)Nc2ccccc2)c(=O)c2cc(OC)ccc21` [Compound 480, 1-ethyl-6-methoxy-4-oxo-N-phenyl-1H-quinoline-3-carboxamide], for which the Emax was less than 25%.

Take `Cc1cccc2[nH]cc(C(=O)Nc3cc4[nH]ccc4cc3C(C)(C)C)c(=O)c12` [Compound 565, 5-methyl-4-oxo-N-(5-tert-butyl-1H-indol-6-yl)-1H-quinoline-3-carboxamide]: the Emax was in the range of 25 to 100%. Regarding `O=C(Nc1ccccc1-c1ccccc1OC(F)(F)F)c1c[nH]c2ccccc2c1=O` [Compound 156, 4-oxo-N-[2-[2-(trifluoromethoxy)phenyl]phenyl]-1H-quinoline-3-carboxamide], the Emax is 25 to 100%. Same read-out and setting: as for `Cc1ccc(NC(=O)c2c[nH]c3ccccc3c2=O)cc1N` [Compound 167, N-(3-amino-4-methyl-phenyl)-4-oxo-1H-quinoline-3-carboxamide], the figure is 25 to 100%; as for `O=C(Nc1ccc(Oc2ccccc2)cc1)c1c[nH]c2ccccc2c1=O` [Compound 267, 4-oxo-N-(4-phenoxyphenyl)-1H-quinoline-3-carboxamide], 25 to 100%; as for `CCc1cc(C(C)(C)C)c(O)cc1NC(=O)c1c[nH]c2cccc(O)c2c1=O` [Compound 507, N-(2-ethyl-5-hydroxy-4-tert-butyl-phenyl)-5-hydroxy-4-oxo-1H-quinoline-3-carboxamide], 25 to 100%. For the compound `COc1c(N)cc(C(C)(C)C)cc1NC(=O)c1c[nH]c2ccccc2c1=O` [Compound 55, N-(3-amino-2-methoxy-5-tert-butyl-phenyl)-4-oxo-1H-quinoline-3-carboxamide], the Emax was less than 25%.

Turning to `CC(C)(C)OC(=O)Nc1ccc(C(C)(C)C)c(NC(=O)c2c[nH]c3ccccc3c2=O)c1` [Compound 353, [3-[(4-oxo-1H-quinolin-3-yl)carbonylamino]-4-tert-butyl-phenyl]aminoformic acid tert-butyl ester], the Emax is 25 to 100%. `O=C(Nc1ccc2cc(C(F)(F)F)[nH]c2c1)c1c[nH]c2cccc(O)c2c1=O` [Compound 693, 5-hydroxy-4-oxo-N-[2-(trifluoromethyl)-1H-indol-6-yl]-1H-quinoline-3-carboxamide]: the Emax was in the range of 25 to 100%.

Regarding `CC(C)c1cc(C(F)(F)F)c(NC(=O)c2c[nH]c3ccccc3c2=O)cc1OCc1ccccc1` [Compound 570, N-[5-benzyloxy-4-isopropyl-2-(trifluoromethyl)phenyl]-4-oxo-1H-quinoline-3-carboxamide], the Emax is 25 to 100%. As to `O=C(Nc1ccc2ccccc2c1)c1c[nH]c2ccccc2c1=O` [Compound 481, N-(2-naphthyl)-4-oxo-1H-quinoline-3-carboxamide], the Emax is 25 to 100%. Still for that read-out and setting: the same measure for `Cc1ccc2[nH]cc(C(=O)Nc3ccc(N4CCCC4C)cc3C(F)(F)F)c(=O)c2c1` (centres unmarked) [Compound 503, 6-methyl-N-[4-(2-methylpyrrolidin-1-yl)-2-(trifluoromethyl)phenyl]-4-oxo-1H-quinoline-3-carboxamide]: 25 to 100%; for `O=C(Nc1ccccc1N1CCCC1)c1c[nH]c2ccccc2c1=O` [Compound 295, 4-oxo-N-(2-pyrrolidin-1-ylphenyl)-1H-quinoline-3-carboxamide]: 25 to 100%; for `O=C(Nc1ccc2nc(-c3ccccc3)[nH]c2c1)c1c[nH]c2ccccc2c1=O` [Compound 73, 4-oxo-N-(2-phenyl-3H-benzoimidazol-5-yl)-1H-quinoline-3-carboxamide]: less than 25%. With `COc1ccc(-c2ccccc2NC(=O)c2c[nH]c3ccccc3c2=O)cc1` [Compound 305, N-[2-(4-methoxyphenyl)phenyl]-4-oxo-1H-quinoline-3-carboxamide], the Emax was more than 100%. `O=C(Nc1ccc(C(F)(F)F)c(O)c1)c1c[nH]c2ccc(F)cc2c1=O` [Compound 650, 6-fluoro-N-[3-hydroxy-4-(trifluoromethyl)phenyl]-4-oxo-1H-quinoline-3-carboxamide]: the Emax fell in the range of 25 to 100%.
